Test results taken from PubChem BioAssay AID248 (DTP/NCI, 2004).
Values joined by “and” are separate entries in the source; they are usually repeats but may differ in a detail not shown here. Identical values can stand only once. Inconclusive results and toxic doses are left out. Cut-off read from the data, not from the text of the source: active = T/C of 150% or more; inactive = T/C below 125%.

Tested on: L1210 leukemia ip in BDF1 mice, survival T/C
Experiment: NCI In Vivo Anticancer Drug Screen. Data for tumor model L1210 Leukemia (intraperitoneal) in B6D2F1 (BDF1) mice
Settings: higher = longer survival
Method in brief: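 Antitumor effect is assessed in tumor-bearing animals. Survival in the compound arm is compared with a vehicle-dosed control arm and expressed as their quotient.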

Measured: T/C

CO[C@H](C(=O)[C@@H](O)[C@@H](C)O)[C@@H]1Cc2cc3cc(OC4CC(OC5CC(O)C(O)C(C)O5)C(O)C(C)O4)c(C)c(O)c3c(O)c2C(=O)[C@H]1OC1CC(OC2CC(OC3CC(C)(O)C(O)C(C)O3)C(O)C(C)O2)C(O)C(C)O1 (some centres not stated)
inactive: endpoint: mean survival time, dose: 0.13 mg/kg/injection, schedule: Q01DX001 (iv), vehicle: water 86 % of control | endpoint: mean survival time, dose: 0.15 mg/kg/injection, schedule: Q01DX015 (ip), vehicle: saline 93 % of control | endpoint: mean survival time, dose: 0.25 mg/kg/injection, schedule: Q01DX001 (ip), vehicle: water 104 % of control | endpoint: mean survival time, dose: 0.25 mg/kg/injection, schedule: Q01DX001 (iv), vehicle: water 96 % of control | endpoint: mean survival time, dose: 0.25 mg/kg/injection, schedule: Q01DX Z (ip), vehicle: saline 98 % of control | endpoint: mean survival time, dose: 0.31 mg/kg/injection, schedule: Q01DX015 (ip), vehicle: saline 104 % of control | endpoint: mean survival time, dose: 0.37 mg/kg/injection, schedule: Q01DX001 (ip), vehicle: water 98 % of control | endpoint: mean survival time, dose: 0.5 mg/kg/injection, schedule: Q01DX001 (ip), vehicle: saline 98 % of control and 101 % of control | endpoint: mean survival time, dose: 0.5 mg/kg/injection, schedule: Q01DX001 (ip), vehicle: water 95 % of control and 97 % of control | endpoint: mean survival time, dose: 0.5 mg/kg/injection, schedule: Q01DX001 (iv), vehicle: water 100 % of control | endpoint: mean survival time, dose: 0.5 mg/kg/injection, schedule: Q01DX Z (ip), vehicle: saline 107 % of control | endpoint: mean survival time, dose: 0.62 mg/kg/injection, schedule: Q01DX015 (ip), vehicle: saline 102 % of control | endpoint: mean survival time, dose: 1.0 mg/kg/injection, schedule: Q01DX001 (ip), vehicle: saline 97 % of control | endpoint: mean survival time, dose: 1.0 mg/kg/injection, schedule: Q01DX Z (ip), vehicle: saline 103 % of control | endpoint: mean survival time, dose: 1.25 mg/kg/injection, schedule: Q01DX001 (ip), vehicle: saline 109 % of control | endpoint: mean survival time, dose: 1.25 mg/kg/injection, schedule: Q01DX015 (ip), vehicle: saline 96 % of control | endpoint: mean survival time, dose: 2.0 mg/kg/injection, schedule: Q01DX001 (ip), vehicle: saline 101 % of control | endpoint: mean survival time, dose: 2.5 mg/kg/injection, schedule: Q01DX001 (ip), vehicle: saline 109 % of control | endpoint: mean survival time, dose: 10.0 mg/kg/injection, schedule: Q01DX001 (ip), vehicle: saline 91 % of control | endpoint: mean survival time, dose: 1.5 micrograms/kg/injection, schedule: Q01DX009 (ip), vehicle: saline 101 % of control and 114 % of control | endpoint: mean survival time, dose: 3.0 micrograms/kg/injection, schedule: Q01DX009 (ip), vehicle: saline 100 % of control and 104 % of control | endpoint: mean survival time, dose: 6.0 micrograms/kg/injection, schedule: Q01DX009 (ip), vehicle: saline 95 % of control and 97 % of control | endpoint: mean survival time, dose: 12.0 micrograms/kg/injection, schedule: Q01DX009 (ip), vehicle: saline 94 % of control and 95 % of control | endpoint: mean survival time, dose: 12.0 micrograms/kg/injection, schedule: Q04DX002 (ip), vehicle: saline 97 % of control and 108 % of control | endpoint: mean survival time, dose: 22.0 micrograms/kg/injection, schedule: Q01DX Z (ip), vehicle: water 97 % of control | endpoint: mean survival time, dose: 22.0 micrograms/kg/injection, schedule: Q02DX Z (ip), vehicle: water 88 % of control | endpoint: mean survival time, dose: 23.0 micrograms/kg/injection, schedule: Q04DX002 (ip), vehicle: saline 101 % of control and 90 % of control | endpoint: mean survival time, dose: 25.0 micrograms/kg/injection, schedule: Q01DX009 (ip), vehicle: saline 99 % of control and 100 % of control | endpoint: mean survival time, dose: 33.0 micrograms/kg/injection, schedule: Q01DX Z (ip), vehicle: water 91 % of control | endpoint: mean survival time, dose: 33.0 micrograms/kg/injection, schedule: Q02DX Z (ip), vehicle: water 96 % of control | endpoint: mean survival time, dose: 45.0 micrograms/kg/injection, schedule: Q04DX002 (ip), vehicle: saline 94 % of control and 103 % of control | endpoint: mean survival time, dose: 50.0 micrograms/kg/injection, schedule: Q01DX009 (ip), vehicle: saline 103 % of control and 110 % of control | endpoint: mean survival time, dose: 50.0 micrograms/kg/injection, schedule: Q01DX Z (ip), vehicle: water 88 % of control | endpoint: mean survival time, dose: 50.0 micrograms/kg/injection, schedule: Q02DX Z (ip), vehicle: water 91 % of control | endpoint: mean survival time, dose: 62.5 micrograms/kg/injection, schedule: Q01DX Z (ip), vehicle: saline 97 % of control | endpoint: mean survival time, dose: 75.0 micrograms/kg/injection, schedule: Q01DX Z (ip), vehicle: water 91 % of control | endpoint: mean survival time, dose: 75.0 micrograms/kg/injection, schedule: Q02DX Z (ip), vehicle: water 97 % of control | endpoint: mean survival time, dose: 90.0 micrograms/kg/injection, schedule: Q04DX002 (ip), vehicle: saline 100 % of control and 106 % of control | endpoint: mean survival time, dose: 125.0 micrograms/kg/injection, schedule: Q01DX009 (ip), vehicle: clinical formulation 103 % of control | endpoint: mean survival time, dose: 125.0 micrograms/kg/injection, schedule: Q01DX009 (ip), vehicle: saline 105 % of control | endpoint: mean survival time, dose: 125.0 micrograms/kg/injection, schedule: Q01DX Z (ip), vehicle: saline 107 % of control | endpoint: mean survival time, dose: 190.0 micrograms/kg/injection, schedule: Q04DX002 (ip), vehicle: saline 87 % of control and 90 % of control | endpoint: mean survival time, dose: 250.0 micrograms/kg/injection, schedule: Q01DX009 (ip), vehicle: clinical formulation 103 % of control | endpoint: mean survival time, dose: 250.0 micrograms/kg/injection, schedule: Q01DX009 (ip), vehicle: saline 107 % of control | endpoint: mean survival time, dose: 250.0 micrograms/kg/injection, schedule: Q01DX Z (ip), vehicle: saline 109 % of control | endpoint: mean survival time, dose: 370.0 micrograms/kg/injection, schedule: Q04DX002 (ip), vehicle: saline 97 % of control and 103 % of control | endpoint: mean survival time, dose: 375.0 micrograms/kg/injection, schedule: Q01DX009 (ip), vehicle: saline 108 % of control | endpoint: mean survival time, dose: 500.0 micrograms/kg/injection, schedule: Q01DX009 (ip), vehicle: clinical formulation 108 % of control | endpoint: mean survival time, dose: 500.0 micrograms/kg/injection, schedule: Q01DX009 (ip), vehicle: saline 113 % of control | endpoint: mean survival time, dose: 500.0 micrograms/kg/injection, schedule: Q01DX Z (ip), vehicle: saline 113 % of control | endpoint: mean survival time, dose: 750.0 micrograms/kg/injection, schedule: Q01DX009 (ip), vehicle: saline 108 % of control | endpoint: mean survival time, dose: 1000.0 micrograms/kg/injection, schedule: Q01DX009 (ip), vehicle: clinical formulation 109 % of control | endpoint: mean survival time, dose: 1000.0 micrograms/kg/injection, schedule: Q01DX009 (ip), vehicle: saline 114 % of control | endpoint: mean survival time, dose: 1500.0 micrograms/kg/injection, schedule: Q01DX009 (ip), vehicle: saline 108 % of control | endpoint: mean survival time, dose: 3000.0 micrograms/kg/injection, schedule: Q01DX009 (ip), vehicle: saline 113 % of control | endpoint: median survival time, dose: 0.25 mg/kg/injection, schedule: Q01DX009 (ip), vehicle: saline 100 % of control and 111 % of control | endpoint: median survival time, dose: 0.5 mg/kg/injection, schedule: Q01DX009 (ip), vehicle: saline 106 % of control and 122 % of control

CCCN(CCC)CC(C)(C)CO
inactive: endpoint: mean survival time, dose: 50.0 mg/kg/injection, schedule: Q01DX009 (ip), vehicle: saline with Tween-80 96 % of control | endpoint: mean survival time, dose: 100.0 mg/kg/injection, schedule: Q01DX009 (ip), vehicle: saline with Tween-80 101 % of control

COC1OC2COc3ccccc3OC2C(NC(N)=S)C1S (configuration not stated)
inactive: endpoint: mean survival time, dose: 100.0 mg/kg/injection, schedule: Q04DX003 (ip), vehicle: saline with Tween-80 102 % of control | endpoint: mean survival time, dose: 200.0 mg/kg/injection, schedule: Q04DX003 (ip), vehicle: saline with Tween-80 95 % of control | endpoint: mean survival time, dose: 400.0 mg/kg/injection, schedule: Q04DX003 (ip), vehicle: saline with Tween-80 102 % of control
